These results are taken from patent publication US20140271734A1, “BILE ACID RECYCLING INHIBITORS FOR TREATMENT OF BARRETT'S ESOPHAGUS AND GASTROESOPHAGEAL REFLUX DISEASE” (LUMENA PHARMACEUTICALS, INC., priority 2013, published 2014).

The test system of one experiment is plasma bile acid. Briefly: Plasma bile acid concentrations in ZDF rats. It counts as in vivo. Here is the method: (§1) Male Zucker diabetic fatty rats (ZDF/GmiCrl-fa/fa) were purchased from Charles River (Raleigh, N.C.) and housed under controlled conditions (12:12 light-dark cycle, 24° C. and 50% relative humidity) with free access to rodent food (Purina 5008, Harlan Teklad, Indianapolis, Ind.). All rats arrived at seven weeks of age (±3 days). After a one-week acclimation period, rats were anesthetized with isoflurane (Abbott Laboratories, IL) and tail-vein blood samples were collected at 9 am without fasting. Blood glucose levels were measured using a glucometer (Bayer, Leverkusen, Germany). In order to ensure balanced treatment groups, ZDF rats were assigned to six treatment groups based upon baseline glucose: vehicle (0.5% HPMC, 0.1% Tween80) and five doses of 264W94 (0.001, 0.01, 0.1, 1, 10 mg/kg). All treatments were given via oral gavage twice a day and animals were followed for two weeks with blood samples collected from tail vein at the end of each week at 9 am without fasting. Fecal samples were collected for 24 hours during the second week of treatment.
(§2) Non-esterified fatty acids (NEFA), bile acids, and bile acids in fecal extraction were measured using the Olympus AU640 clinical chemistry analyzer (Beckman Coulter, Irving, Tex.).
Male ZDF rats (n=4) were administered vehicle, SC-435 (1, 10 or 30 mg/kg) or LUM002 (0.3, 1, 3, 10 or 30 mg/kg) by oral gavage twice a day for 2 weeks. Plasma bile acid levels were determined at the end of the second week. […] Data are expressed as mean values±SEM.

For a further experiment, the system named is total serum bile acids. Briefly: Plasma total serum bile acids in ZDF rats, week 3. It counts as in vivo. As to conditions: twice daily oral gavage.
Experiment [1] deals with Alanine Aminotransferase (ALAT). The experiment in a line: Plasma alanine aminotransferase in ZDF rats, week 3. It counts as in vivo. As to conditions: twice daily oral gavage.
A further experiment has as its system plasma triglycerides. Briefly: Plasma triglycerides in ZDF rats, week 3. It counts as in vivo. The note with it: twice daily oral gavage, no dose-related response.
The next experiment has as its system Hemoglobin A1c (HbA1c). Briefly: Baseline-corrected percent HbA1c in ZDF rats. It counts as in vivo. As to conditions: twice daily oral gavage.
For another experiment, the system named is GLP-2. The experiment in a line: GLP-2 in plasma of non-fasted ZDF rats, 2 weeks treatment. It counts as in vivo.
The test system of a further experiment is plasma lipase. Briefly: Plasma lipase in ZDF rats, week 3. It counts as in vivo. As to conditions: twice daily oral gavage.
The next experiment concerns plasma amylase. The experiment in a line: Plasma amylase in ZDF rats, week 3. The note with it: twice daily oral gavage. It counts as in vivo.
Experiment [2] relates to Alkaline Phosphatase (ALP). As to conditions: twice daily oral gavage; Week 3.
Description: This study was conducted to determine the effects of two non-absorbed ASBTi compounds in the ZDF rat model after 3 weeks of treatment.
Animals were acclimatized for 5-7 days after arrival. […] The 2nd set of study was initiated after completion of the 1st. Test compound formulation prepared every other day and stored at 4° C. […] After 3rd week of treatment blood samples were collected by cardiac puncture from fasted animals for blood chemistry analysis: ALAT, ASAT, GGT, Alkaline Phosphatase and total Bile Acids. Tests were performed in contract clinical laboratory (Liver Profile SA320, Antech Diagnostics, Orange Country, Calif.).
Blood was collected by tail vein bleed weekly and after 3 weeks of treatment by cardiopuncture for serum tests. Data for each group is presented as the Mean Value±SEM. Statistically evaluation by t-test: *P<0.05, **P<0.01,***P<0.001 vs. vehicle group.
A further experiment concerns bile acids in the feces. The experiment in a line: Fecal bile acid excretion in ZDF rats after oral 264W94. It counts as in vivo, Zucker diabetic fatty rats (ZDF/GmiCrl-fa/fa). How it is done: as §1, §2
[3] abbreviates: 264W94 0.001-10 mg/kg oral gavage twice a day, 2 weeks.

For `CCCCC1(CCCC)CS(=O)(=O)c2ccc(N(C)C)cc2[C@@H](c2ccc(OCCCC[N+]34CCN(CC3)CC4)cc2)[C@H]1O.CS(=O)(=O)[O-]` [SC-435, 1-[4-[4-[(4R,5R)-3,3-dibutyl-7-(dimethylamino)-2,3,4,5-tetrahydro-4-hydroxy-1,1-dioxido-1-benzothiepin-5-yl]phenoxy]butyl]4-aza-1-azoniabicyclo[2.2.2]octane methanesulfonate salt, reference compound], the “Plasma bile acid levels” value with plasma bile acid (SC-435 1, 10 or 30 mg/kg, LUM002 0.3, 1, 3, 10 or 30 mg/kg, oral gavage twice a day, end of second week, n=4) was “decreased for all doses”. In the experiment with total serum bile acids, the “Plasma total serum bile acids (SBA)” value is “statistically significant reductions in SBA”. In addition, in [1], the “Plasma alanine aminotransferase (ALAT)” value was “Neither LUM002 nor SC-435 caused statistically significant reductions”. For the same molecule, the Fasting plasma triglycerides result in the experiment with plasma triglycerides is “statistically significant elevations”. Moreover, the “Baseline-corrected percent HbA1c” value in the experiment with Hemoglobin A1c (HbA1c) is recorded as “significant dose-dependent reductions”. For the same molecule, in the experiment with GLP-2, the GLP-2 in plasma result is “significant elevations in GLP2 at higher doses”. Further, the Plasma lipase entry in the experiment on plasma lipase is listed as “statistically significant reductions in plasma lipase at higher doses”. The Plasma amylase result in the experiment on plasma amylase is reported as “Neither LUM002 nor SC-435 caused a statistically significant changes”. In addition, in experiment [2], the “Plasma alkaline phosphatase (ALP)” value is recorded as “significant reductions in ALP”.

`CCCC[C@]1(CC)CS(=O)(=O)c2cc(OC)c(OC)cc2[C@@H](c2ccccc2)N1` [Compound 264W94]: in the experiment on bile acids in the feces (setting [3]), the “Bile acids in the feces” value is given as “dose-dependently increased”. In addition, the “Fecal bile acid concentrations elevated vs vehicle treated rats” value in the experiment on bile acids in the feces (264W94 0.001-10 mg/kg oral gavage twice a day, 24 h feces in second week) was “up to 6.5 fold”. Besides, the “Fecal NEFA” value in the experiment with bile acids in the feces (264W94 oral gavage twice a day, 2 weeks) was “slightly increased”. The “ED50 (fecal bile acid elevation)” value in the experiment with bile acids in the feces (oral gavage twice a day, 2 weeks) came to 0.17 mg/kg. Moreover, in the experiment on plasma bile acid (setting [3]), the “Plasma bile acid concentrations” value is “decreased dose-dependently”.
